Activity calls are given as the source filed them.

For data set [1], the system named is RBL-2H3. Nature of the data set: Antiallergic activity in rat RBL-2H3 cell model assessed as inhibition rate of IgE-mediated degranulation in by measuring […] at 50 uM relative to control. Type of data set: functional.
Data set [2] can be described thus: AUC (0 to 12 hrs) in Sprague-Dawley rat at 10 mg/kg, iv measured upto 12 hrs by mass spectrometry. Type of data set: ADME, organism-based. The note with it: in vivo.
The nature of data set [3]: Clearance in Sprague-Dawley rat at 10 mg/kg, iv measured upto 12 hrs by mass spectrometry. Type of data set: ADME, organism-based. The note with it: in vivo.
Data set [4] can be described thus: Metabolic stability in human liver microsmes assessed as half life in presence of NADPH measured upto 60 mins by HPLC analysis. The note with it: liver microsomes. It is filed as ADME.
Data set [5] in a line: AUC (0 to infinity) in Sprague-Dawley rat at 10 mg/kg, iv measured upto 12 hrs by mass spectrometry. As to conditions: in vivo. Type of data set: ADME, organism-based.
Data set [6] relates to RBL-2H3. Nature of the data set: Antiallergic activity in rat RBL-2H3 cell model assessed as inhibition rate of IgE-mediated degranulation in by measuring […]. It is filed as functional, cell-based.
A short description of data set [7]: Cmax in Sprague-Dawley rat at 40 mg/kg, po measured upto 12 hrs by mass spectrometry. It is filed as ADME, organism-based. The note with it: in vivo.
Data set [8] in a line: AUC (0 to 12 hrs) in Sprague-Dawley rat at 40 mg/kg, po measured upto 12 hrs by mass spectrometry. It is filed as ADME, organism-based. As to conditions: in vivo.
Data set [9] in a line: AUC (0 to infinity) in Sprague-Dawley rat at 40 mg/kg, po measured upto 12 hrs by mass spectrometry. Type of data set: ADME, organism-based. As to conditions: in vivo.
Data set [10] in a line: Half life in Sprague-Dawley rat at 40 mg/kg, po measured upto 12 hrs by mass spectrometry. Type of data set: ADME, organism-based. As to conditions: in vivo.
The nature of data set [11]: Metabolic stability in human liver microsmes assessed as half life in presence of UDPGA measured upto 60 mins by HPLC analysis. As to conditions: liver microsomes. Type of data set: ADME.
Data set [12] is described as follows: Tmax in Sprague-Dawley rat at 40 mg/kg, po measured upto 12 hrs by mass spectrometry. It is filed as ADME, organism-based. The note with it: in vivo.
A short description of data set [13]: Metabolic stability in human liver microsmes assessed as half life measured upto 60 mins by HPLC analysis. It is filed as ADME. The note with it: liver microsomes.
Data set [14] is described as follows: Half life in Sprague-Dawley rat at 10 mg/kg, iv measured upto 12 hrs by mass spectrometry. Type of data set: ADME, organism-based. The note with it: in vivo.
A short description of data set [15]: Oral bioavailability in Sprague-Dawley rat at 40 mg/kg measured upto 12 hrs by mass spectrometry. It is filed as ADME, organism-based. As to conditions: in vivo.
The subject of data set [16] is Mus musculus. Nature of the data set: Antiallergic activity against ovalbumin-sensitized food allergic Balb/c mouse model assessed as decrease in OVA-specific IgG1 level treated once a day during OVA challenge phase (days 28 to 40) administered by intragastric. As to conditions: dose 2.5-10 mg/kg, route ig, time 13.0 day. Type of data set: functional, organism-based.

Data set [17] concerns Mus musculus. Briefly: Antiallergic activity against ovalbumin-sensitized food allergic Balb/c mouse model assessed as suppression of intestinal edema by measuring reduced intestinal damage at 10 mg/kg once a day during OVA challenge phase (days 28 to 40) administered by intragastric. Type of data set: functional, organism-based. The note with it: route ig, time 13.0 day.

Data set [18] relates to Mus musculus. Briefly: Antiallergic activity against ovalbumin-sensitized food allergic Balb/c mouse model assessed as decrease in histamine level at 2.5 to 10 mg/kg treated once a day during OVA challenge phase (days 28 to 40) administered by intragastric. Type of data set: functional, organism-based. As to conditions: dose 2.5-10 mg/kg, route ig, time 13.0 day.
Data set [19] relates to Mus musculus. Briefly: Antiallergic activity against ovalbumin-sensitized food allergic Balb/c mouse model assessed as suppression of spleen enlargement at 10 mg/kg once a day during OVA challenge phase (days 28 to 40) administered by intragastric. It is filed as functional, organism-based. As to conditions: route ig, time 13.0 day.
Data set [20] has as its system Mus musculus. Nature of the data set: Antiallergic activity against ovalbumin-sensitized food allergic Balb/c mouse model assessed as decrease in IL-4 level at 10 mg/kg treated once a day during OVA challenge phase (days 28 to 40) administered by intragastric. Type of data set: functional, organism-based. As to conditions: route ig, time 13.0 day.
Data set [21] has as its system Mus musculus. Briefly: Antiallergic activity against ovalbumin-sensitized food allergic Balb/c mouse model assessed as decrease in OVA-specific IgG2a level at 2.5 to 10 mg/kg treated once a day during OVA challenge phase (days 28 to 40) administered by intragastric. The note with it: dose 2.5-10 mg/kg, route ig, time 13.0 day. Type of data set: functional, organism-based.

Data set [22] deals with Mus musculus. Nature of the data set: Antiallergic activity against ovalbumin-sensitized food allergic Balb/c mouse model assessed as decrease in IFN-gamma level at 10 mg/kg treated once a day during OVA challenge phase (days 28 to 40) administered by intragastric. It is filed as functional, organism-based. As to conditions: route ig, time 13.0 day.
The test system of data set [23] is RBL-2H3. Briefly: Cytotoxicity against rat RBL-2H3 cells assessed as cell viability at 5 to 100 uM incubated for 24 hrs by CCK8- assay. Type of data set: toxicity, cell-based. The note with it: rbl-2h3, 24 h, dose 5-100 µM.
Data set [24] can be described thus: Clearance in Sprague-Dawley rat at 40 mg/kg, po measured upto 12 hrs by mass spectrometry. It is filed as ADME, organism-based. The note with it: in vivo.
In data set [25] the test system is Mus musculus. Nature of the data set: Antiallergic activity against ovalbumin-sensitized food allergic Balb/c mouse model assessed as decrease in mMCP-1 level at 2.5 to 10 mg/kg treated once a day during OVA challenge phase (days 28 to 40) administered by intragastric. Type of data set: functional, organism-based. As to conditions: dose 2.5-10 mg/kg, route ig, time 13.0 day.

Data set [26] deals with Mus musculus. Briefly: Antiallergic activity against passive cutaneous anaphylaxis (PCA) reaction BALB/c mouse model assessed as reduction in BSA/IgE-mediated allergic reaction in ear by measuring extravasation of Evans blue dye pretreated IG for 7 days followed administered with anti-DNP-IgE after 24 hrs treated with DNP-BSA by Evans blue dye based microscopic analysis. Type of data set: functional, organism-based. As to conditions: dose 2.5-10 mg/kg, time 8.0 day.

Data set [27] concerns Mus musculus. Nature of the data set: Antiallergic activity against ovalbumin-sensitized food allergic Balb/c mouse model assessed as decrease in OVA-specific IgE level treated once a day during OVA challenge phase (days 28 to 40) administered by intragastric. The note with it: dose 2.5-10 mg/kg, route ig, time 13.0 day. Type of data set: functional, organism-based.

One may read the inhibition as how much of the control response was suppressed. Take `C=CCOC1=C(c2ccc(OCC=C)cc2)[C@](Cc2ccc(OCC=C)c(CC=C(C)C)c2)(C(=O)OC)OC1=O`: the inhibition at 50 µM with RBL-2H3 [1] is 18.4%.
Still for that read-out and setting: as for `COC(=O)[C@]1(Cc2ccc(OC(=O)C(C)C)c(CC=C(C)C)c2)OC(=O)C(OC(=O)C(C)C)=C1c1ccc(OC(=O)C(C)C)cc1`, the figure is 6.93%.
As to `CC(C)=CCc1cc(C[C@@]2(C=O)OC(=O)C(O)=C2c2ccc(O)cc2)ccc1O`, in the data set with RBL-2H3 [1], the inhibition entry is “Active” and the inhibition at 50 µM was determined as 63.9%.
Regarding `COC(=O)[C@]1(Cc2ccc(O)c(CC=C(C)C)c2)OC(=O)C(OC(C)=O)=C1c1ccc(O)cc1`, the inhibition at 50 µM in the data set with RBL-2H3 [1] came to 33.5%.
`COC(=O)[C@]1(Cc2ccc(O)c(CCC(C)C)c2)OC(=O)C(O)=C1c1ccc(O)cc1`: in the data set with RBL-2H3 [1], the inhibition at 50 µM stood at 47.9%.
For orientation: AUC(0-t) means the area under the concentration-time curve up to a stated or last time point. Higher therefore signals high exposure. For orientation: half-life means the time needed for the level to fall by half in the phase considered. One may read the AUC(0-inf) as total exposure, with the tail of the curve extrapolated. A lower AUC(0-inf) goes with low exposure. As a reminder, the IC50 is the concentration needed to halve the response being measured. As usually defined, the Cmax is the highest concentration seen after dosing. As usually defined, the Tmax is the time from dosing to the highest level. The bioavailability is the share of a dose that reaches the circulation, judged against a reference dose that is usually intravenous. As to `COC(=O)[C@]1(Cc2ccc(O)c(CC=C(C)C)c2)OC(=O)C(O)=C1c1ccc(O)cc1`, the figures for the AUC(0-t) at 12 h in data set [2] and in [8] were 21.7 ng·h/mL and 28.9 ng·h/mL, respectively. Also, the CL in [3] (iv, 10 mg/kg, 12 h) amounted to 7202 mL/min/kg. Also, the half-life in data set [4] is 0.326 h; in data set [10], 4.7 h; in [11] it was 0.292 h; in data set [13] it was 0.283 h; in [14], 4.1 h. Further, the results for the AUC(0-inf) in [5] and in data set [9] were 27.8 ng·h/mL and 36.9 ng·h/mL, respectively. Also, in the data set with RBL-2H3 [6], the IC50 amounted to 13.5 µM. Further, the concentration in data set [7] peaked (Cmax) at 10.8 ng/mL. Further, the inhibition at 50 µM in the data set with RBL-2H3 [1] was over 90%. For the same molecule, in data set [12], the Tmax stood at 0.7 h. Also, the bioavailability in data set [15] stood at 33.2%.
As for `COC(=O)[C@]1(Cc2ccc(OC)c(CC=C(C)C)c2)OC(=O)C(OC)=C1c1ccc(OC)cc1`, the inhibition at 50 µM in the data set on RBL-2H3 [1] was found to be 38.7%.
On the same count and under the same terms, as for `COC(=O)[C@]1(Cc2ccc(OC(C)=O)c(CC=C(C)C)c2)OC(=O)C(OC(C)=O)=C1c1ccc(O)cc1`, the figure is 27.8%.
Usually clearance stands for a measure of how efficiently the substance is removed, as volume per time. Broadly, the CL/F is clearance divided by bioavailability, as obtained after extravascular dosing. For `CC(=O)[C@]1(Cc2ccc(O)c(CC=C(C)C)c2)OC(=O)C(O)=C1c1ccc(O)cc1`, the figures for the AUC(0-t) at 12 h in data set [2] and in data set [8] were 4090 ng·h/mL and 6540 ng·h/mL, respectively. This molecule showed a clearance in data set [3] (Sprague-Dawley) of 45 mL/min/kg. The Activity result in the data set with Mus musculus [16] was “Dose-Dependent Effect”; in the data set with RBL-2H3 [23], “Non-Toxic”; in the data set with Mus musculus [26], “Dose-Dependent Effect”; with Mus musculus [27], “Dose-Dependent Effect”. For the same molecule, the half-life in data set [4] was 3.73 h; in data set [10] it was 4.1 h; in data set [11], 2.22 h; in data set [13], 8.88 h; in data set [14], 2.2 h. Moreover, the result with Mus musculus [17], in the data set on Mus musculus [18], in the data set on Mus musculus [19], with Mus musculus [20], with Mus musculus [22] and in the data set with Mus musculus [25] was Active. Further, the AUC(0-inf) in [5] turned out to be 4120 ng·h/mL; in data set [9], 7560 ng·h/mL. In addition, in the data set on RBL-2H3 [6], the IC50 was determined as 6.7 µM. In addition, the inhibition entry in the data set on RBL-2H3 [6] was “Dose-Dependent Effect”. In addition, the concentration in data set [7] peaked (Cmax) at 6110 ng/mL. Also, the result with Mus musculus [21] was inactive. Besides, the inhibition at 50 µM in the data set on RBL-2H3 [1] is over 90%. This molecule gave an apparent clearance CL/F in [24] of 90 mL/min/kg. Moreover, the Tmax in data set [12] is 0.2 h. In [15], this molecule displayed a bioavailability of 45.9%.
For `COC(=O)[C@]1(Cc2ccc(O)c(CC=C(C)C)c2)OC(=O)C(OC(=O)C(C)C)=C1c1ccc(OC(=O)C(C)C)cc1`, the inhibition at 50 µM in the data set on RBL-2H3 [1] worked out at 21.3%.
Same read-out and setting: as for `C=CCOC1=C(c2ccc(O)cc2)[C@](Cc2ccc(O)c(CC=C(C)C)c2)(C(=O)OC)OC1=O`, the figure is over 90%.
For the molecule `COC(=O)[C@]1(Cc2ccc3c(c2)CCC(C)(C)O3)OC(=O)C(O)=C1c1ccc(O)cc1`, the inhibition at 50 µM in the data set with RBL-2H3 [1] is 10.1%.
The same measure, in the same setting: as for `COC(=O)[C@]1(Cc2ccc(OCC=C(C)C)c(CC=C(C)C)c2)OC(=O)C(OCC=C(C)C)=C1c1ccc(OCC=C(C)C)cc1`, the figure is 15.6%; as for `C=CCOC1=C(c2ccc(OCC=C)cc2)[C@](Cc2ccc(O)c(CC=C(C)C)c2)(C(=O)OC)OC1=O`, 8.95%.
Still for that read-out and setting: as for `COC(=O)[C@]1(Cc2ccc(O)c(CC=C(C)C)c2)OC(=O)C(OC)=C1c1ccc(O)cc1`, the figure is 33.2%; as for `COC(=O)[C@]1(Cc2ccc(O)c(CC=C(C)C)c2)OC(=O)C(OC(=O)C(C)C)=C1c1ccc(O)cc1`, 36.7%.
Same read-out and setting: as for `COC(=O)[C@]1(Cc2ccc(O)c(CC=C(C)C)c2)OC(=O)C(OC)=C1c1ccc(OC)cc1`, the figure is 17.1%.
Regarding `CC(C)=CCc1cc(C[C@@]2(CO)OC(=O)C(O)=C2c2ccc(O)cc2)ccc1O`, in the data set with RBL-2H3 [1], the inhibition result is “inactive” and the inhibition at 50 µM was 27.7%.
Turning to `CN1CCC(=C2c3ccccc3CC(=O)c3sccc32)CC1` [KETOTIFEN], in the data set on RBL-2H3 [6], the IC50 is 27.9 µM.
Turning to `COC(=O)[C@]1(Cc2ccc(OC(C)=O)c(CC=C(C)C)c2)OC(=O)C(OC(C)=O)=C1c1ccc(OC(C)=O)cc1`, the inhibition at 50 µM with RBL-2H3 [1] worked out at 11.7%.
